Assays:
[1] = test system: Akt phosphorylation (Ser473) in lung, heart, liver; experiment: Insulin stimulation analysis in liver, heart, and lung (pAkt); format: in vivo, mice; details: inhaled CL27c 2 mg/ml 30 min; insulin 1 UI/kg i.p.
Experimental: Animals were fasted overnight and, the day after, they were treated for 30 min with aerosolized CL27c (2 mg/ml in 0.5 % tylaxopol/saline solution). After 1 h from the CL27c treatment mice were administrated with insulin (1.0 UI kg^−1 diluted in PBS solution, Actrapid, Novo Nordisk, i.p. injection). Ten min after injection, the animals where sacrificed and tissues removed, frozen in liquid nitrogen, and homogenized in lysis buffer (50 mM Tris-HCl, pH = 8, 150 mM NaCl, 1% Triton X-100) supplemented with 50 mM NaF, 2 mM sodium orthovanadate, 1 mM sodium pyro-phosphate, and protease inhibitor cocktail (Roche).
Lung, liver, and heart samples were collected for western blot detection of akt phosphorilation levels. Protein samples were resolved by 10% SDS-PAGE and transferred on to PVDF (Immobilon™-P) membranes. The membranes were blocked with 5% BSA in 1x TBS with 0.3% Tween 20 for 30 min at […]. Then, the membranes were incubated overnight at 4 °C with primary antibodies (phosphorylated Akt serine 473, 1:1000, Cell Signaling Technology, Cat. Number 4060) and 1 h with HRP-conjugated secondary antibody (1:10000). […] For quantification, specific phosphorylation was calculated as the ratio of signals for phosphorylated Akt to the signal of total Akt detected. […]

[2] = test system: Akt phosphorylation (Ser473) in CLL cells; experiment: Akt phosphorylation in CLL cells stimulated with anti-IgM; format: cell-based, human; details: CL27c 10 nM–10 µM
Experimental: CLL cells (#Hs 505.T, ATCC® CRL-7306™) were cultured with RPMI additioned with 10% FBS and 100 μg/ml penicillin and streptomycin. The day of the assay CLL cells were seeded in 96-well plate at a concentration of 7 × 10^4 cells/ml in starving medium, RPMI free. The cells were starved for 6 h and subsequently pretreated for 1.5 h with CL27c at different concentrations. The cells were stimulated for 15 min with 15 μg/ml of goat anti-Human IgM-MU chain specific antibody (Sigma-Aldrich #I0759-1MG) and proteins were extracted with Laemmli buffer.
For all cell types, phosphorylated Akt (P-Akt, Ser 473, 1:100, Cell Signaling Technology #4060) production was detected by western blot analysis and quantified with ChemiDoc™ XRS system. P-Akt signals are normalized on endogenous. For the calculation of EC50 values, a percentage of residual P-Akt was calculated for each inhibitor concentration by using the control vehicle as 100%. To derive the EC50, all data were plotted on a dose response curve (Graph Pad software) and the EC50 was calculated by using the non-linear regression fit (equation [log agonist] vs response–variable slope).
Supplementary Figure 3: Inhibition of Akt phosphorylation at Ser473 (pAkt473) […]
panel). […] The respective EC50 was calculated by using nonlinear

[3] = Microsomial stability, rat; format: in vitro ADME; details: rat liver microsomes, NADPH
Experimental: To define whether this prodrug was suitable for inhaled administration, CL27c was studied to evaluate selected ADME (absorption, distribution, metabolism, and excretion) and pharmacokinetic properties. First, stability of CL27c and CL27e was analyzed in mouse plasma (Supplementary Table 1) and in mouse, rat, and human liver microsomes in the presence of nicotinamide adenine dinucleotide phosphate (NADPH; Supplementary Table 2). Next, clearance of CL27c was analyzed in C57BL/6J mice after either intra-venous or oral administration. […] Clearance of CL27c and CL27e after oral administration could not be determined due to their low bioavailability (Supplementary Table 3). Next, pharmacokinetics after inhalation was studied in C57BL/6J mice after delivering an aerosolized micro-suspension of CL27c. As shown in Table 1 and Supplementary Fig. 1b, CL27c dose-dependently reached the lungs and its metabolite CL27e was detectable after inhalation of the highest dose. […] Therefore, the inhaled prodrug promotes local effects but prevents systemic absorption of pharmacologically relevant amounts of the active compound. […]
All tests for the microsomial stability of CL27c were conducted by the Istituto di Ricerche Biomediche (RBM) SpA – Merck Serono, Ivrea, Italy. […]
Then, cells […]
pretreated with different doses of CL27c were incubated at 37°C and 5% CO 2 for 10 minutes. […]

[4] = test system: murine bone marrow-derived macrophages; experiment: BMDM migration (Boyden chamber); format: cell-based, mouse; details: CXCL12 100 nM and C5a 50 nM; CL27c 1 and 10 µM
Experimental: For the migration assay, BMDMs (isolated as above described) were pretreated with Versene (Gibco™ #15040066) to detach them from the plate, washed, and incubated with free RPMI with different concentrations of CL27c for at least 2 h. Migration assay was subsequently performed by using a Boyden chamber toward C5a (50 nM, Sigma-Aldrich #SRP4895A) and CXCL12 (100 nM, Peprotech #250-20A) chemokines for 1 h at 37 °C, 5% CO2. Migrated BMDMs, attached to the polycarbonate of the Boyden chamber, were stained with Diff-Quik® reagent (MICROPTIC S.L. #DQ-ST) and counted at the microscope (5 fields/sample). The percentage of migrated cells was calculated by relating the number of the treated cells with the control vehicle (free RPMI).

COC(=O)c1cccc(Cn2cc(-c3cccc4c(=O)cc(N5CCOCC5)[nH]c34)nn2)c1 [CL27c]
insulin-evoked Akt phosphorylation (Ser473) in lungs [1]: did not show elevation of protein kinase B (Akt) phosphorylation | insulin-evoked Akt phosphorylation in heart or liver [1]: insulin was able to normally increase Akt phosphorylation | Akt/PKB phosphorylation [2]: readily reduced Akt/PKB phosphorylation | Clint (intrinsic clearance) [3]: 0.2 ± 0.005 ml/min/mg prot | t1/2 [3]: 5.9 ± 0.1 min | chemotaxis of BMDM [4]: significantly reduce CXCL12- and C5a-induced chemotaxis

— paper PMC6290777, “Inhalation of the prodrug PI3K inhibitor CL27c improves lung function in asthma and fibrosis” (Nature Communications, 2018)
